{"source": "paper PMC6171417", "about": "“Carbonic anhydrase inhibition with a series of novel benzenesulfonamide-triazole conjugates” (Journal of Enzyme Inhibition and Medicinal Chemistry, 2018)", "assay_in_all_cases": "cells", "set-up_in_all_cases": "species or system NCI human tumour cell line panel; NCI one-dose anti-proliferative screen, human tumour cell line panel, growth inhibition percent (GI%)", "key": {"UACC-62": {"tested_on": "UACC-62", "settings": "Homo sapiens, UACC-62; growth inhibition (GI%), single dose", "description": "(§1) Ten of the newly synthesised 1,2,3-triazolo benzenesulfonamide derivatives were selected by NCI (Bethesda, MD) for evaluating their anti-proliferative activity. The selected compounds were subjected to a primary in vitro one-dose ([…]) anti-proliferative assay against 57 human tumour cell lines following the previously reported method[30] and their obtained growth inhibition percent (GI%) are presented in Table 2. A subset of ten triazolo-benzenesulfonamides (3, 5, 6, 7, 9, 11, 16–18, and 20) were selected and subjected to an in vitro anti-proliferative screening against a panel of 57 cancer cell lines at NCI at an initial high dose ([…]). The human cell lines used were derived from nine cancer types: leukaemia, lung, colon, CNS, melanoma, ovarian, renal, prostate and breast cancers."}, "SNB-19": {"tested_on": "SNB-19", "settings": "Homo sapiens, SNB-19; growth inhibition (GI%), single dose", "description": "as §1"}, "LOX IMVI": {"tested_on": "LOX IMVI", "settings": "Homo sapiens, LOX IMVI; growth inhibition (GI%), single dose", "description": "as §1"}, "NCI-H226": {"tested_on": "NCI-H226", "settings": "Homo sapiens, NCI-H226; growth inhibition (GI%), single dose", "description": "as §1"}, "OVCAR-8": {"tested_on": "OVCAR-8", "settings": "Homo sapiens, OVCAR-8; growth inhibition (GI%), single dose", "description": "as §1"}, "U251": {"tested_on": "U251", "settings": "Homo sapiens, U-251; growth inhibition (GI%), single dose", "description": "as §1"}, "UACC-257": {"tested_on": "UACC-257", "settings": "Homo sapiens, UACC-257; growth inhibition (GI%), single dose", "description": "as §1"}, "UO-31": {"tested_on": "UO-31", "settings": "Homo sapiens, UO-31; growth inhibition (GI%), single dose", "description": "as §1"}, "T-47D": {"tested_on": "T-47D", "settings": "Homo sapiens, T47D; growth inhibition (GI%), single dose", "description": "as §1"}, "PC-3": {"tested_on": "PC-3", "settings": "Homo sapiens, PC-3; growth inhibition (GI%), single dose", "description": "as §1"}, "MCF7": {"tested_on": "MCF7", "settings": "Homo sapiens, MCF7; growth inhibition (GI%), single dose", "description": "as §1"}, "HT29": {"tested_on": "HT29", "settings": "Homo sapiens, HT-29; growth inhibition (GI%), single dose", "description": "as §1"}, "NCI-H522": {"tested_on": "NCI-H522", "settings": "Homo sapiens, NCI-H522; growth inhibition (GI%), single dose", "description": "as §1"}, "SK-OV-3": {"tested_on": "SK-OV-3", "settings": "Homo sapiens, SK-OV-3; growth inhibition (GI%), single dose", "description": "as §1"}, "A498": {"tested_on": "A498", "settings": "Homo sapiens, A498; growth inhibition (GI%), single dose", "description": "as §1"}, "CCRF-CEM": {"tested_on": "CCRF-CEM", "settings": "Homo sapiens, CCRF-CEM; growth inhibition (GI%), single dose", "description": "as §1"}, "MOLT-4": {"tested_on": "MOLT-4", "settings": "Homo sapiens, MOLT-4; growth inhibition (GI%), single dose", "description": "as §1"}, "EKVX": {"tested_on": "EKVX", "settings": "Homo sapiens, EKVX; growth inhibition (GI%), single dose", "description": "as §1"}, "RPMI-8226": {"tested_on": "RPMI-8226", "settings": "Homo sapiens, RPMI-8226; growth inhibition (GI%), single dose", "description": "as §1"}, "HS 578T": {"tested_on": "HS 578T", "settings": "Homo sapiens, Hs-578T; growth inhibition (GI%), single dose", "description": "as §1"}}, "data": [{"smiles": "N#Cc1nnn(-c2ccc(S(N)(=O)=O)cc2)c1N", "note": "[compound 3, 3]", "values": [{"measurement": "inhibition at 10 µM", "setting": "UACC-62", "value": 5.5, "unit": "%"}, {"measurement": "inhibition at 10 µM", "setting": "SNB-19", "value": 2.9, "unit": "%"}, {"measurement": "inhibition at 10 µM", "setting": "LOX IMVI", "value": 6.1, "unit": "%"}, {"measurement": "inhibition at 10 µM", "setting": "NCI-H226", "value": 5.2, "unit": "%"}, {"measurement": "inhibition at 10 µM", "setting": "OVCAR-8", "value": 4.6, "unit": "%"}, {"measurement": "inhibition at 10 µM", "setting": "U251", "value": 0.6, "unit": "%"}, {"measurement": "inhibition at 10 µM", "setting": "UACC-257", "value": 10.2, "unit": "%"}, {"measurement": "inhibition at 10 µM", "setting": "UO-31", "value": 14.5, "unit": "%"}, {"measurement": "inhibition at 10 µM", "setting": "T-47D", "value": 5.1, "unit": "%"}, {"measurement": "inhibition at 10 µM", "setting": "PC-3", "value": 8.3, "unit": "%"}, {"measurement": "inhibition at 10 µM", "setting": "MCF7", "value": 5.5, "unit": "%"}, {"measurement": "inhibition at 10 µM", "setting": "HT29", "value": 9.4, "unit": "%"}, {"measurement": "inhibition at 10 µM", "setting": "NCI-H522", "value": 9.7, "unit": "%"}, {"measurement": "inhibition at 10 µM", "setting": "SK-OV-3", "value": 4.6, "unit": "%"}, {"measurement": "inhibition at 10 µM", "setting": "A498", "value": 13.6, "unit": "%"}, {"measurement": "inhibition at 10 µM", "setting": "CCRF-CEM", "value": 15.3, "unit": "%"}, {"measurement": "inhibition at 10 µM", "setting": "MOLT-4", "value": 13.3, "unit": "%"}, {"measurement": "inhibition at 10 µM", "setting": "EKVX", "value": 8.7, "unit": "%"}, {"measurement": "inhibition at 10 µM", "setting": "RPMI-8226", "value": 8.5, "unit": "%"}, {"measurement": "inhibition at 10 µM", "setting": "HS 578T", "value": 5.9, "unit": "%"}]}]}
